# Source: patent US20120040916A1, “MOLECULAR INHIBITORS OF THE WNT/BETA-CATENIN PATHWAY” (MASSACHUSETTS INSTITUTE OF TECHNOLOGY, priority 2008, published 2012)
# Columns and labels:
# [1] = system: nuclear β-catenin in B16 cells; assay: Immunofluorescent staining of β-catenin in B16 cells; format: cell-based, murine
# Procedure: A polyclonal rabbit anti-β-catenin antibody was used for detection of β-catenin (1:1000 dilution for immunoblot, 1:200 dilution for immunohistochemistry). Cells were grown on 18 mm glass coverslips, for 48-72 hours, fixed using 4% paraformaldehyde, permeabilized using 0.25% Triton X-100, and then blocked with 10% goat serum. Goat anti-rabbit Alexa Fluor-568 antibody (Molecular Probes; Eugene, Oreg.) was diluted 1:1000. Cells were counterstained for nucleic acid with DAPI (Molecular Probes; Eugene, Oreg.). Paraffin-embedded nevus sections were stained using an antibody dilution of 1:200. Cellular lysates were obtained by lysing cells on plate with a 0.1% NP-40 based buffer and analyzed by NuPage 4-12% gradient gels (Invitrogen; Grand Island, N.Y.). The WNT5A antibody was obtained from Cell Signaling Technologies (Danvers, Mass.).
# [2] = system: Wnt/β-catenin pathway (Axin2) in B16 cells; assay: Quantitative PCR of Axin2 in B16 cells; format: cell-based, murine
# Procedure: Cells were cultured for approximately 72 hours until they reached 80-90% confluency. RNA was purified using the RNeasy kit using the manufacturer's protocol (Qiagen; Maryland, MD). cDNA was synthesized using Superscript Reverse Transcriptase (Invitrogen; Grand Island, N.Y.). Light Cycler FastStart DNA Master SYBR Green1 (Roche; Mannheim, Germany) was used for real-time PCR as previously described (Major et al., Science 316:1043 (2007), which is hereby incorporated by reference in its entirety). Quantitative PCR results presented in the manuscript are representative of experiments performed on a minimum of three biologic replicates.
# B16 melanoma cells = assay: MTT proliferation assay of B16 melanoma cells; format: cell-based, murine
# [3] = system: human melanoma cell lines; assay: Proliferation of human melanoma cell lines (hematocytometer or MTT assay); format: cell-based; details: 10 mM lithium chloride, 3-7 days, FIG. 4D
Structure (SMILES),"Nuclear β-catenin by immunofluorescent staining ([1]; 1 μM BIO vs DMSO, FIG. 5B)","Axin2 levels by quantitative PCR ([2]; 1 μM BIO vs control cells, FIG. 5D)","Proliferation by MTT assay (B16 melanoma cells; 1 μM BIO vs control cells, FIG. 5F)","Proliferation, normalized to growth in 10 mM sodium chloride [3]","Nuclear β-catenin by immunofluorescent staining ([1]; 10 mM lithium chloride vs 10 mM sodium chloride, FIG. 5A)","Axin2 levels by quantitative PCR ([2]; 10 mM lithium chloride vs control cells, FIG. 5C)","Proliferation by MTT assay (B16 melanoma cells; 10 mM lithium chloride vs control cells, FIG. 5E)"
O=C1Nc2cc(Br)ccc2/C1=C1/Nc2ccccc2/C1=N\O [BIO],increased nuclear β-catenin,increased Axing levels,decreased proliferation,,,,
[Cl-].[Li+] [lithium chloride],,,,inhibited proliferation in all human melanoma cell lines tested,increased nuclear β-catenin,increased Axing levels,decreased proliferation
